In one test the test system is SCP2 bone metastasis. In words: Bone metastasis xenograft, SCP2 cells injected intracardially, MRK-003 treatment. Format: in vivo, mouse. On the procedure: For bone metastsis studies, 10^5 tumor cells were injected into the left cardiac ventricle of anesthetized female athymic Ncr-nu/nu or BALB/c mice. Development of metastases was monitored by BLI. Bioluminescence images were acquired with a Xenogen IVIS 200 Imaging System. Analysis was performed with Living Image software by measuring photon flux in the hindlimbs of mice. Data were normalized to the signal on day 7. Bone metastasis-free survival curves represent the time point at which each mouse developed bone metastasis by threshold BLI signals in the hindlimbs. For the orthotopic xenograft model, mammary fat pad injections and primary tumor size measurements were performed following the procedure described previously (Minn et al., 2005, which is incorporated herein by reference as if fully set forth).
Osteolysis was assessed by X-ray radiography. Anesthetized mice were placed on single wrapped films (X-OMAT AR, Eastman Kodak) and exposed to X-ray radiography at 35 kV for 15 s using a MX-20 Faxitron instrument. Films were developed using a Konica SRX-101A processor. Osteolytic lesions were identified on radiographs as demarcated radiolucent lesions in the bone and quantified using the ImageJ software (National Institutes of Health).
Hindlimb bones were excised from mice at the end point of each experiment, immediately after the last BLI time point. Following this, the tumor-bearing hind limb bones were fixed in 10% neutral-buffered formalin, decalcified in 10% EDTA for 2 weeks, and embedded in paraffin for hematoxylin and eosin (H&E), tartrate-resistant acid phosphatase (TRAP) (Kos et al., 2003, which is incorporated herein by reference as if fully set forth), or immunohistochemical staining. Histomorphometric analysis was performed on H&E stained bone metastasis samples using the Zeiss Axiovert 200 microscope and the AxioVision software version 4.6.3 SP1. For quantitative analysis of lesion area, a 5× objective was used to focus on the tumor region of interest and images were acquired using the AxioCamICc3 camera set to an exposure of 100 ms. Lesions that were larger than the field of view were quantified by acquiring multiple images to encompass the entire lesion. The “spline” function of the AxioVision software was used to outline the region of interest and subsequently quantify the lesion area. Osteoclast number was assessed as multinucleated TRAP^+ cells along the tumor-bone interface and reported as number/mm of interface (Yin et al., 2003, which is incorporated herein by reference as if fully set forth). Immunohistochemical analysis was performed with heat-induced antigen retrieval. Primary antibodies used were anti-JAGGED1 (Santa Cruz, sc-6011) and anti-Ki67 (Dako, Denmark). Biotinylated secondary antibody was used with Vectastain ABC Kit (Vector Laboratories) and DAB detection kit (Zymed) to reveal the positively stained cells with nuclei counterstained with hematoxylin.
MRK-003 is a potent and specific gamma-secretase inhibitor whose biochemical, cellular and pharmacological properties have been extensively studied and reported. MRK-003 is a cyclic sulfamide with sub-nanomolar potency inhibiting gamma-secretase-mediated cleavage of Notch to its active form (NICD) (Lewis et al., 2007, which is incorporated herein by reference as if fully set forth). […] For xenograft experiments, mice were administered the vehicle (0.5% methylcellulose) or MRK-003 by oral gavage twice a week at a 100 mg/kg dosage. The dosing schedule was 2-days on, 5-days off. […]

Test [1] concerns Notch target genes and IL-6. In words: Species-specific qRT-PCR of the stromal compartment of bone metastases. The note with it: mouse-specific qRT-PCR; FIG. 17A. Format: in vivo. On the procedure: (§1) RNA from in vitro cultured cells or flow cytometry-separated cells was collected in RLT lysis buffer and extracted with RNeasy mini kit (Qiagen). RNA extraction from in vivo tissue samples was performed using Trizol (Invitrogen) according to the manufacturer's protocol. cDNA synthesis of RNA was performed using Superscript III First-Strand (Invitrogen). Quantitative RT-PCR was performed using Power Syber Green PCR Master Mix (Applied Biosystems) with the ABI Prism 7900HT thermocycler (Applied Biosystems) according to the manufacturer's protocol. A standard curve for each gene was generated by serial dilutions of a standard. Values were then normalized by the amount of GAPDH or β-actin in each sample. For in vivo samples, species-specific primers were employed for gene expression analysis in the tumor compartment (human) versus stroma compartment (mouse).
A general note: In qPCR the cycle at which signal appears reflects the starting amount.

The subject of another test is IL-6. In words: Murine IL-6 ELISA and qRT-PCR in osteoblast cocultures. Format: cell-based, mouse. The conditions noted are these: JAG1 OE coculture with MC3T3-E1; FIGS. 13B, 13C, 13E. On the procedure: Quantitative levels of murine IL-6 in the conditioned medium of cultured and cocultured cells were determined in triplicate by ELISA according to the manufacturer's protocol (Quantikine immunoassay kit, R&D systems).
as §1
For orientation: An ELISA detects its analyte on a solid surface through an enzyme-linked reagent.

In another test the test system is Notch. The conditions noted are these: Tammam et al., 2009; cited from earlier work.

As for `O=S1(=O)N[C@@]2(CN1CC(F)(F)F)[C@@H]1CC[C@H]2Cc2ccc(/C=C/CN3CCC(C(F)(F)F)CC3)cc2C1` [MRK-003], the “reduction in bone metastasis burden by BLI” value in the test with SCP2 bone metastasis (100 mg/kg oral gavage twice a week, FIG. 16A) came to 5 fold. The “delay in the onset of bone metastasis” value in the test with SCP2 bone metastasis (FIG. 16B) is about 10 days. For the same compound, the “number of bone lesions” value in the test with SCP2 bone metastasis (FIG. 16C) is recorded as “reduced”. For the same compound, in the test with SCP2 bone metastasis (FIG. 16D), the “reduction in X-ray lesion area” value came to 2 fold. For the same compound, in the test on SCP2 bone metastasis (bone-tumor interface, FIG. 16E), the “decrease in the number of TRAP+ osteoclasts” value is given as 3 fold. Moreover, the “expression levels of Notch target genes and IL-6 in the stromal compartment of bone metastases” value in test [1] is “significantly reduced”. In the test on IL-6, the “IL-6 transcription and secretion from osteoblasts” value is “dependent on the Notch pathway”. In addition, the “duration of target engagement sufficient to induce potent Notch inhibition” value with Notch is 48 h.

The values above are taken from US20150329918A1, “JAGGED1 AS A MARKER AND THERAPEUTIC TARGET FOR BREAST CANCER BONE METASTASIS” (The Trustees of Princeton University, priority 2011, published 2015).
